Measurements: US20220281868A1, “MACROCYCLIC DERIVATIVES AS FACTOR XIA INHIBITORS” (MEDSHINE DISCOVERY INC., priority 2019, published 2022)

How the values were obtained:
human factor XIa = target: T1, human factor XIa (Homo sapiens, UniProt P03951); assay: Screening test of enzyme inhibitory activity on hFXIa; format: biochemical; settings: substrate S-2366/S-2306, 37° C. 10 minutes, absorbance 405 nm, pH 7.4
T1 construct: Enzyme, Human Factor XIa (Human Factor XIa, Abcam, Cat #ab62411); purchased Abcam ab62411
T1 sequence (P03951 388-625 limits assumed): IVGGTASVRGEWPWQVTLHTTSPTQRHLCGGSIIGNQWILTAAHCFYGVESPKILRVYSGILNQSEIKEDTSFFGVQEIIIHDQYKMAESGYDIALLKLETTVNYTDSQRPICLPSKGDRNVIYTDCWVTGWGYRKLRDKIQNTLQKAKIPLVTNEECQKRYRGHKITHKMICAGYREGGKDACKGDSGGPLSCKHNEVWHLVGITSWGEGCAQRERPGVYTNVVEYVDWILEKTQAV
T1 sequence (P03951 19-387 partner limits assumed): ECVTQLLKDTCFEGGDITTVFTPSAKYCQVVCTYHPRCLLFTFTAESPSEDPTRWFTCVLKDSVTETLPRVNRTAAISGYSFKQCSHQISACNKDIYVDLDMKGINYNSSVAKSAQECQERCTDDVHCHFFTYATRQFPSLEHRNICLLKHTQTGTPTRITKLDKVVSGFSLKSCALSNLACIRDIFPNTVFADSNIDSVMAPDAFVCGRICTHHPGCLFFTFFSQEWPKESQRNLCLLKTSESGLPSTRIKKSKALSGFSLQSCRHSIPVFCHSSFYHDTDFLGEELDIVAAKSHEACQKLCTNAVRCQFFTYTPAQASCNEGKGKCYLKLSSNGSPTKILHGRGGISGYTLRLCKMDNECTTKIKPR
Description: 1. Screening Test of Enzyme Inhibitory Activity on hFXIa (Human Factor XIa)
(§1) Purpose of the Experiment:
Detection of the inhibitory activity of the compounds of the present disclosure on human factor XIa
1) Experimental buffer pH 7.4
100 mM Tris-HCl (Sigma, catalog number: T2663, batch number: SLBG2775)
200 mM NaCl (Sigma, catalog number: 13423, batch number: SZBB2360V)
2) Enzymes and Substrates
Enzyme, Human Factor XIa (Human Factor XIa, Abcam, Cat #ab62411): Total amount: 50 μg. Dissolved with experimental buffer and packed separately.
Substrate S-2366 (DiaPharma, catalog number: S821090): 25 mg
3) Instruments and Consumables
SpectraMax 340PC Multifunctional Microplate Reader (Molecular Devices)
384-well black transparent reaction plate (Corning Cata #3712)
Echo Liquid Workstation (Labcyte)
Echo 384-well polypropylene compound plate (Labcyte-P-05525) was used.
Echo 384 Shallow Pore Polypropylene Compound plate (Labcyte-LP-0200, 2.5-12 μL) was used.
Multidrop automatic dispenser (Thermo Scientific)
Multidrop Consumables (Thermo Scientific-24073290) […]
7) The reaction plate was placed in SpectraMax 340PC and incubated at 37° C. for 10 minutes, and the absorbance was detected at 405 nm.
8) Data were analyzed using GraphPad Prism 5.0
% Inhibition rate=100%×[1−(sample reading-low signal average value)/(high signal average value-low signal average value)]
IC50 was analyzed using 4-factor linear regression: […]

human plasma = assay: Determination of aPTT (activated partial thromboplastin time) in human plasma in vitro; settings: coagulation time
From the text: 2. Determination of aPTT (Activated Partial Thromboplastin Time) in Human Plasma In Vitro
as §1
Detection of the anticoagulant effect of the compounds of the present disclosure on human plasma in vitro
1) Coagulation quality control plasma: produced by TECO, Germany, batch number: 093B-J186A
2) aPTT test solution: produced by TECO, Germany, batch number: 20002745; CaCl2): produced by TECO, Germany, batch number: 031N-J073A; DMSO: Sangon Bioengineering (Shanghai) Co., Ltd., batch number: BB02BA0001
3) Instrument: Germany Meichuang MC-4000 blood coagulation instrument
1) Sample solution preparation: 10 mM compound stock solution was prepared with DMSO, and then serially diluted with DMSO as follows: […], 2500, 625, 156.25, 39.06, 9.76, 2.44 μM; then series of concentrations were diluted with tris(hydroxymethylaminomethane) buffer (containing 5% Tween 80) 10 times for use, and the drug to plasma volume ratio was 1:9 during detection. […]
4) Test detection: According to the instructions of the kit, the sample solution to be tested or the reference solution were added into the 37° C. preheated colorimetric cup, preheated at 37° C. for 2 min, aPTT reagent was added, incubated at 37° C. for 3 min, 0.02 M CaCl2 (preheated at 37° C.) was added, and the coagulation time was recorded.

| IC50 (human factor XIa) [nM] | Compound | aPTT2x (human plasma) [µM] |
| --- | --- | --- |
| 2.28 | C[C@@H]1CCCC(c2coc(-c3cc(Cl)ccc3-n3cc(C#N)nn3)cc2=O)c2cc(ccn2)-c2c(cnn2C(F)F)NC1=O (stereo partly shown) [Compound 4] |  |
|  | Enoxaparin [reference compound] | 4.61 |
| 3.5 | [2H]C([2H])([2H])n1ncc2c1-c1ccnc(c1)C(c1coc(-c3c(-n4cc(Cl)nn4)ccc(Cl)c3F)cc1=O)CCCC(C)C(=O)N2 (stereo not shown) [Compound 8-1] | 4.94 |
